36 compounds from patent US20240287080A1 (IDEAYA Biosciences Inc., priority 2021, published 2024) can be followed below.

Some results are limits rather than exact numbers.

The target in the first test is T1, Pol theta (1-899) (Homo sapiens, UniProt O75417).
T1 construct: Pol theta (1-899) (5 nM) in assay buffer
T1 sequence (O75417 1-899): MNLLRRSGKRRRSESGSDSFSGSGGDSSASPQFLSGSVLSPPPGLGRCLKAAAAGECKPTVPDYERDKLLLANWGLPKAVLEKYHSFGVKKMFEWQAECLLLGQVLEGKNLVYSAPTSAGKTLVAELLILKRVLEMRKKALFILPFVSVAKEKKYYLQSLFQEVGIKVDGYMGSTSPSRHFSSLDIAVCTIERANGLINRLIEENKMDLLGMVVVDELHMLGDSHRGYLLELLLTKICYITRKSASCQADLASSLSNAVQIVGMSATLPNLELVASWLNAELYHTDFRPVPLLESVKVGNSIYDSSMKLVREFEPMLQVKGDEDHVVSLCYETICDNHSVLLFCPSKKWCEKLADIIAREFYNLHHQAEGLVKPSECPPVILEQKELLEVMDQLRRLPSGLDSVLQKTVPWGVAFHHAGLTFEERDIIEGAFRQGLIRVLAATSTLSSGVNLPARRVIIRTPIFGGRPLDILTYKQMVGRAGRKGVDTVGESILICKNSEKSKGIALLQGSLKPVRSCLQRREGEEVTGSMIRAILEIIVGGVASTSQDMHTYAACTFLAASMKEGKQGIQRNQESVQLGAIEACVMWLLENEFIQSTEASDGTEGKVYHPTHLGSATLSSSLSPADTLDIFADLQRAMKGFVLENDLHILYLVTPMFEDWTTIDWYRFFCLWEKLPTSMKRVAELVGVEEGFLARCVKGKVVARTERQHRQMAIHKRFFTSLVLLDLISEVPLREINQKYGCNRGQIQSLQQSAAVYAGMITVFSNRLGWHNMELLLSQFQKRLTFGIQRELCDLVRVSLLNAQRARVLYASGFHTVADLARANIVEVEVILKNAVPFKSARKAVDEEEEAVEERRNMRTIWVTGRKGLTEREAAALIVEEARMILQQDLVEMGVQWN
Briefly: Pol theta ATPase activity, NADH oxidation-coupled enzymatic assay (ATPase NADH coupling: Standard Screening: hPolQ). The class given is biochemical. The following applies: Pol theta (1-899) 5 nM, NADH oxidation-coupled ATPase assay; compounds of Table 3. An outline of the steps:
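NADH-coupled ATPase readout: 5 nM Pol theta (1-899) preincubated 15 min with 10-point compound series in Tris pH 7.80, KCl, MgCl2, DTT, BSA, Tween, glycerol, then 100 μM ATP, 300 nM 50-mer poly-dT ssDNA, NADH, PEP, LDH and PK added (stock levels). A340 followed 60 min; slopes fit four-parameter for IC50.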
`COc1nnc(NC(=O)c2cnc(C)cc2-c2cncc(C(=O)NC3CC3)c2)s1` [Example 403, N5-cyclopropyl-N3′-(5-methoxy-1,3,4-thiadiazol-2-yl)-6′-methyl-[3,4′-bipyridine]-3′,5-dicarboxamide]: the IC50 was in the range of 1000 to 10000 nM.
The compound `COc1cnc(Cl)cc1-c1cc(C)ncc1C(=O)Nc1nnc(OC2(C3CCOC3)CC2)s1` (stereo not drawn) [Example 288, 2′-chloro-5′-methoxy-6-methyl-N-(5-(1-(tetrahydrofuran-3-yl)cyclopropoxy)-1,3,4-thiadiazol-2-yl)-[4,4′-bipyridine]-3-carboxamide] showed an IC50 of no more than 200 nM.
Still for that read-out and setting: under `COc1ccc(-c2cc(C)ncc2C(=O)Nc2nnc(OC)s2)c(OC)c1` [Example 462, 4-(2,4-dimethoxyphenyl)-N-(5-methoxy-1,3,4-thiadiazol-2-yl)-6-methylpyridine-3-carboxamide] stands 200 to 500 nM.
Still for that read-out and setting: under `COc1nnc(NC(=O)c2cnc(C)cc2-c2ccc(C(=O)O)c(F)c2)s1` [Example 465, 2-fluoro-4-(5-((5-methoxy-1,3,4-thiadiazol-2-yl)carbamoyl)-2-methylpyridin-4-yl)benzoic acid] stands 1000 to 10000 nM.
The same measure, in the same setting: the result for `COc1nnc(NC(=O)c2cnc(C)cc2-c2cc(Cl)c(S(C)(=O)=O)cc2OC)s1` [Example 272, 4-(5-chloro-2-methoxy-4-(methylsulfonyl)phenyl)-N-(5-methoxy-1,3,4-thiadiazol-2-yl)-6-methylnicotinamide] reads no more than 200 nM.
The compound `COc1nnc(NC(=O)c2cnc(C)cc2-c2cccc(N3CCOCC3)c2)s1` [Example 415, N-(5-methoxy-1,3,4-thiadiazol-2-yl)-6-methyl-4-[3-(morpholin-4-yl)phenyl]pyridine-3-carboxamide] returned a concentration for half-maximal inhibition (IC50) of 1000 to 10000 nM.
Same read-out and setting: under `COc1nnc(NC(=O)c2cnc(C)cc2-c2ccc(C(C)(C)C)cc2)s1` [Example 356, 4-(4-(tert-butyl)phenyl)-N-(5-methoxy-1,3,4-thiadiazol-2-yl)-6-methylnicotinamide] stands 1000 to 10000 nM; under `COc1nnc(NC(=O)c2cnc(C)cc2-c2ccc(NS(C)(=O)=O)cc2)s1` [Example 387, 4-(4-methanesulfonamidophenyl)-N-(5-methoxy-1,3,4-thiadiazol-2-yl)-6-methylpyridine-3-carboxamide], 1000 to 10000 nM.
On the same count and under the same terms, the result for `CNS(=O)(=O)c1cccc(-c2cc(C)ncc2C(=O)Nc2nnc(OC)s2)c1` [Example 401, N-(5-methoxy-1,3,4-thiadiazol-2-yl)-6-methyl-4-[3-(methylsulfamoyl)phenyl]pyridine-3-carboxamide] reads 1000 to 10000 nM.
On the same count and under the same terms, the result for `COc1nnc(NC(=O)c2cc(-c3cc(Cl)ncc3OC)ncc2C)s1` [Example 285, 2′-chloro-5′-methoxy-N-(5-methoxy-1,3,4-thiadiazol-2-yl)-5-methyl-[2,4′-bipyridine]-4-carboxamide] reads 1000 to 10000 nM.
Compound `COc1nnc(NC(=O)c2cnc(C)cc2-c2ccc(C(N)=O)cc2)s1` [Example 353, 4-(4-carbamoylphenyl)-N-(5-methoxy-1,3,4-thiadiazol-2-yl)-6-methylpyridine-3-carboxamide] came in with an IC50 of 1000 to 10000 nM.
The same measure, in the same setting: the result for `COc1ccc(-c2cc(C)ncc2C(=O)Nc2nnc(OC)s2)cc1` [Example 377, N-(5-methoxy-1,3,4-thiadiazol-2-yl)-4-(4-methoxyphenyl)-6-methylpyridine-3-carboxamide] reads 1000 to 10000 nM.
In turn, `COc1nnc(NC(=O)c2cnc(C)cc2-c2ccnc(C)c2)s1` [Example 404, N-(5-methoxy-1,3,4-thiadiazol-2-yl)-2′,6-dimethyl-[4,4′-bipyridine]-3-carboxamide] yielded an IC50 of 1000 to 10000 nM.
On the same count and under the same terms, the result for `COc1nnc(NC(=O)c2cnc(C)cc2-c2cc(C)cc(C)c2)s1` [Example 358, 4-(3,5-dimethylphenyl)-N-(5-methoxy-1,3,4-thiadiazol-2-yl)-6-methylpyridine-3-carboxamide] reads 500 to 1000 nM.
Still for that read-out and setting: the result for `Cc1cc(-c2cc(Cl)ncc2OC(F)F)c(C(=O)Nc2nnc(O[C@@H]3CCC[C@@H](O)C3)s2)cn1` (single isomer, unassigned) [Example 251] reads no more than 200 nM.
On the same count and under the same terms, under `COc1nnc(NC(=O)c2cnc(C)cc2-c2ccc(OC(F)F)cc2)s1` [Example 448, 4-[4-(difluoromethoxy)phenyl]-N-(5-methoxy-1,3,4-thiadiazol-2-yl)-6-methylpyridine-3-carboxamide] stands 1000 to 10000 nM.
Consider `COc1nnc(NC(=O)c2cc(C#N)ncc2-c2cc(Cl)ncc2OC)s1` [Example 290, 2′-chloro-6-cyano-5′-methoxy-N-(5-methoxy-1,3,4-thiadiazol-2-yl)-[3,4′-bipyridine]-4-carboxamide], for which the IC50 lay in the range of 200 to 500 nM.
Compound `COc1nnc(NC(=O)c2ccc(F)cc2-c2cc(Cl)ncc2OC)s1` [Example 266, 2-(2-chloro-5-methoxypyridin-4-yl)-4-fluoro-N-(5-methoxy-1,3,4-thiadiazol-2-yl)benzamide] returned an IC50 of no more than 200 nM.
`CNC(=O)c1ccc(-c2cc(C)ncc2C(=O)Nc2nnc(OC)s2)cc1` [Example 402, N-(5-methoxy-1,3,4-thiadiazol-2-yl)-6-methyl-4-[4-(methylcarbamoyl)phenyl]pyridine-3-carboxamide]: the IC50 is 1000 to 10000 nM.

The same test, now with this note: Table 4; Pol theta (1-899) 5 nM, ATP, dT50 ssDNA.
In the case of `COc1nnc(NC(=O)c2cnc(C)cc2-c2cc(Cl)ncc2CO)s1` [Example 72, 2′-chloro-5′-(hydroxymethyl)-N-(5-methoxy-1,3,4-thiadiazol-2-yl)-6-methyl-(4,4′-bipyridine)-3-carboxamide], the IC50 was 500 to 1000 nM.
The same measure, in the same setting: under `COc1cccc(F)c1-c1cc(C)ncc1C(=O)Nc1nnc(O)s1` [Example 3, 4-(2-fluoro-6-methoxyphenyl)-N-(5-hydroxy-1,3,4-thiadiazol-2-yl)-6-methylnicotinamide] stands 1000 to 10000 nM; under `COc1cnc(Cl)cc1-c1cc(C)ncc1C(=O)Nc1nnc(O[C@H]2CCOC2)s1` [Example 22, (S)-2′-chloro-5′-methoxy-6-methyl-N-(5-((tetrahydrofuran-3-yl)oxy)-1,3,4-thiadiazol-2-yl)-(4,4′-bipyridine)-3-carboxamide], no more than 200 nM.
The same measure, in the same setting: the result for `COc1nnc(NC(=O)c2cnc(C)cc2-c2c(F)cccc2Cl)s1` [Example 38, 4-(2-chloro-6-fluorophenyl)-N-(5-methoxy-1,3,4-thiadiazol-2-yl)-6-methylnicotinamide] reads no more than 200 nM; that for `CCc1cnc(Cl)cc1-c1cc(C)ncc1C(=O)Nc1nnc(OC)s1` [Example 49, 2′-chloro-5′-ethyl-N-(5-methoxy-1,3,4-thiadiazol-2-yl)-6-methyl-(4,4′-bipyridine)-3-carboxamide], no more than 200 nM.

The same test, now with this note: Table 5; Pol theta (1-899) 5 nM, ATP, dT50 ssDNA.
With `COc1cnc(Cl)cc1-c1cc(C)ncc1C(=O)Nc1nnc(O[C@H]2COC3(CCCC3)C2)s1` (single isomer, unassigned) [Example 230], the IC50 was no more than 200 nM.
As to `COc1cnc(C)c(F)c1-c1cc(C)ncc1C(=O)Nc1nnc(OC2COC2)s1` [Example 204], the half-maximal inhibitory concentration (IC50) was no more than 200 nM.
Still for that read-out and setting: under `COCc1cc(-c2cc(Cl)ncc2OC)c(C(=O)Nc2nnc(O[C@@H]3CCOC3)s2)cn1` [Example 142, (R)-2′-chloro-5′-methoxy-6-(methoxymethyl)-N-(5-((tetrahydrofuran-3-yl)oxy)-1,3,4-thiadiazol-2-yl)-(4,4′-bipyridine)-3-carboxamide] stands no more than 200 nM; under `COc1cnc(Cl)cc1-c1cc(C)ncc1C(=O)Nc1nnc(O[C@]2(C)CCOC2)s1` (single isomer, unassigned) [Example 139], 200 to 500 nM.
`COc1cnc(Cl)cc1-c1cc(C)ncc1C(=O)Nc1nnc(O[C@H]2CCC[C@@](C)(O)C2)s1` (racemic) [Example 177, rac-2′-chloro-N-(5-(((1R,3S)-3-hydroxy-3-methylcyclohexyl)oxy)-1,3,4-thiadiazol-2-yl)-5′-methoxy-6-methyl-(4,4′-bipyridine)-3-carboxamide]: the IC50 was in the range of 200 to 500 nM.
Same read-out and setting: under `COc1cnc(Cl)c(F)c1-c1cc(C)ncc1C(=O)Nc1nnc(O[C@H]2CCO[C@@H]2C)s1` (single isomer, unassigned) [Example 165] stands no more than 200 nM; under `COc1cnc(Cl)cc1-c1cc(C)ncc1C(=O)Nc1nnc(O[C@H]2CC[C@@H](OC)C2)s1` (racemic) [Example 150, rac-2′-chloro-5′-methoxy-N-(5-(((1R,3S)-3-methoxycyclopentyl)oxy)-1,3,4-thiadiazol-2-yl)-6-methyl-(4,4′-bipyridine)-3-carboxamide], no more than 200 nM; under `COc1cnc(Cl)cc1-c1cc(C)ncc1C(=O)Nc1nnc(OC2CCC3(CCCO3)CC2)s1` (single isomer, unassigned) [Example 173, N-(5-(((5s,8r)-1-oxaspiro(4.5)decan-8-yl)oxy)-1,3,4-thiadiazol-2-yl)-2′-chloro-5′-methoxy-6-methyl-(4,4′-bipyridine)-3-carboxamide], no more than 200 nM.
`COc1nnc(NC(=O)c2cnc(C)cc2-c2ccnc(Cl)c2)s1` [Example 100, 2′-chloro-N-(5-methoxy-1,3,4-thiadiazol-2-yl)-6-methyl-(4,4′-bipyridine)-3-carboxamide]: the IC50 lay in the range of 200 to 500 nM.
The same measure, in the same setting: the result for `COc1nnc(NC(=O)c2cnc(C)cc2-c2ccnc3ncnn23)s1` [Example 91, 4-((1,2,4)triazolo(1,5-a)pyrimidin-7-yl)-N-(5-methoxy-1,3,4-thiadiazol-2-yl)-6-methylnicotinamide] reads 1000 to 10000 nM; that for `COc1cnc(Cl)cc1-c1cc(C)ncc1C(=O)Nc1nnc(O[C@H]2CC[C@@H]([C@H](C)O)CC2)s1` (single isomer, unassigned) [Example 213], no more than 200 nM.
Same read-out and setting: the result for `COc1nnc(NC(=O)c2cnc(C)cc2-c2cc3cn[nH]c3cc2OC)s1` [Example 104, N-(5-methoxy-1,3,4-thiadiazol-2-yl)-4-(6-methoxy-1H-indazol-5-yl)-6-methylnicotinamide] reads 200 to 500 nM.

The term IC50 denotes the concentration at which inhibition is half-maximal.
